Legend:
[1] = system: LTB4 release from MPRO cell line; assay: LTB4-cell assay; assay type: cell-based; conditions: Mus musculus; differentiated MPRO cells, 1 μM A23187, 1 hour; read-out: EC50, inhibition of LTB4
Protocol: This procedure was used for measuring the release of the leukotriene LTB4 from a neutrophil cell line using a competitive ELISA technique.
A mouse promyelocytic cell line (MPRO) was used in this assay. These cells are committed immature neutrophils that can be differentiated into mature neutrophils by treatment with 10 μM all-trans retinoic acid for 72 hours
Following 72 hours of differentiation, cells were stimulated with 1 μM of a calcium ionophore (A23187) in the presence or absence of test compound or vehicle for 1 hour at 37° C. After this time, supernatant was removed from the cells and the LTB4 levels were determined following manufacturer's instructions, using a Leukotriene B4 EIA kit from Cayman (Cat # 520111)
The negative controls were media samples from differentiated but unstimulated cells.
The compounds were screened at 5 concentrations in quadruplicate starting at 10 μM

[2] = molecular target: T1, porcine leukocyte 12/15-lipoxygenase (Sus scrofa, UniProt P16469); assay: 12/15-Lipoxygenase enzyme assay; assay type: biochemical; conditions: 70 μM arachidonic acid, pH 7.4; read-out: IC50, inhibition of 12/15-Lipoxygenase
T1 sequence (P16469 1-663): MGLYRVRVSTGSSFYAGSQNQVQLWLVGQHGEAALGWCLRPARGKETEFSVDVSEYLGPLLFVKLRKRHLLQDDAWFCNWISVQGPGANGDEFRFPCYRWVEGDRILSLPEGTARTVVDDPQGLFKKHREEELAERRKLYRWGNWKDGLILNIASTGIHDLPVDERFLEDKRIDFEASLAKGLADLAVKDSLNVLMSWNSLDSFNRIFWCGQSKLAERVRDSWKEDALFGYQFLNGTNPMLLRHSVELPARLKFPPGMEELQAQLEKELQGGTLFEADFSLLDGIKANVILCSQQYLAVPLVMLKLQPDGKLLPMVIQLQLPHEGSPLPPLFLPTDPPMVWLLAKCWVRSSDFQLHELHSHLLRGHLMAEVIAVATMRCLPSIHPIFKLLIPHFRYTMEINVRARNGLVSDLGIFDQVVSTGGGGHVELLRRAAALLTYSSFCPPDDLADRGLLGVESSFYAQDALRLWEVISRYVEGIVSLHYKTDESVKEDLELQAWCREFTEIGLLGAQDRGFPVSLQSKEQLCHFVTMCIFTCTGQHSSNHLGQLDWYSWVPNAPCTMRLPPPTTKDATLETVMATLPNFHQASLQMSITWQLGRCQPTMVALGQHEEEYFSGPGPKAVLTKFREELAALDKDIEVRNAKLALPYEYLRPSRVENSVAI
Protocol: This procedure was used for measuring the enzymatic activity of porcine leukocyte 12/15-lipoxygenase using a calorimetric method based on the ferric oxidation of xylenol orange.
(§1) Porcine Leukocyte 12/15-lipoxygenase (Cayman Cat # 60300) was used in this assay. Test compound and/or vehicle was added to 1.3U 12/15-lipoxygenase in 50 mM Tris-HCl buffer, pH 7.4. The reaction was initiated by addition of 70 μM arachidonic acid in Tris-HCl buffer, pH 7.4, and terminated after a 10 minute incubation at room temperature by addition of FOX reagent (25 mM sulphuric acid, 100 μM xylenol orange, 100 μM iron (II) sulphate, methanol:water 9:1). The yellow color of acidified xylenol orange was converted to a blue color by the lipid hydroperoxide-mediated oxidation of Fe^2+ ions and the interaction of the resulting Fe^3+ ions with the dye. The complex was allowed to form during a 1 hour incubation at room temperature with shaking. Absorbance of the Fe^3+ complex was then measured at […] using a spectrophotometer.
(§2) Negative controls contained enzyme during the incubation step but substrate was not added until after the FOX reagent.
Compounds are screened at 5 concentrations in triplicate starting at 10 μM

[3] = molecular target: T2, human recombinant 5-lipoxygenase (Homo sapiens, UniProt P09917); assay: 5-Lipoxygenase enzyme assay; assay type: biochemical; conditions: 70 μM arachidonic acid, pH 7.4
T2 construct: purchased Cayman 60402
T2 sequence (P09917 1-674): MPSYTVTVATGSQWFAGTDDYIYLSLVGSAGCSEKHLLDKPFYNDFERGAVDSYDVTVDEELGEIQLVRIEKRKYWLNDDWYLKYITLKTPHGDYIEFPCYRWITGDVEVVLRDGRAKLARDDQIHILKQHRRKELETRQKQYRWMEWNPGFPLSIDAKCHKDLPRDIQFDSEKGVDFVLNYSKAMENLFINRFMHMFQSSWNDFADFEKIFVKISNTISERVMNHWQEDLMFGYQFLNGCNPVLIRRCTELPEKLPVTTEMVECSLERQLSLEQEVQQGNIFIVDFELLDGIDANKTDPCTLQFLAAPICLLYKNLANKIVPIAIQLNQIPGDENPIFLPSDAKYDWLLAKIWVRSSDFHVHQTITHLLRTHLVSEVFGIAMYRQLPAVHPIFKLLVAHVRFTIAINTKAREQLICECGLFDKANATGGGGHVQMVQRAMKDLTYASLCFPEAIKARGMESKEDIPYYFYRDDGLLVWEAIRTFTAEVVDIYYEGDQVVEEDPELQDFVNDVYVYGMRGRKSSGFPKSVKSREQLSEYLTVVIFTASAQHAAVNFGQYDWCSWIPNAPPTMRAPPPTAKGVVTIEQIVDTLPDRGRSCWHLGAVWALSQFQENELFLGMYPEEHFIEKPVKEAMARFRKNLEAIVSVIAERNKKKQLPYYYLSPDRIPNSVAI
Protocol: This procedure was used for measuring the enzymatic activity of human recombinant 5-lipoxygenase using a […] method based on the ferric oxidation of xylenol orange.
as §1, with “Human recombinant 5-lipoxygenase” for “Porcine Leukocyte 12/15-lipoxygenase”, “60402)” for “60300)”, “The test” for “Test”, “0.5U 5-lipoxygenase” for “1.3U 12/15-lipoxygenase”
as §2
Compounds were screened at 5 concentrations in triplicate starting at 10 μM

[4] = system: LTB4 production in heparinized whole blood; assay: Inhibition of LTB4 production in blood; assay type: cell-based, rat or mouse; conditions: 20 μM A23187, read-out: EC50, protection against LTB4
Protocol: The blood was collected in heparinized tubes or syringes to prevent clotting. Heparin was at 20 USP U/ml. About 3-5 ml of blood was collected per rat and about 0.5-0.75 ml per mouse. This assay required 200 μl/data point, therefore a 96 well plate requires 20 ml.
The Calcium ionophore A23187 was prepared as a 10 mM stock solution in DMSO and the test agent is prepared in DMSO so that <1 μl DMSO will be added to the well
200 μl blood per well were added in a round bottom 96 well clear plastic 96 well plate followed by the test agent. After 10 minutes incubation at 37° C., 5 μl of Calcium ionophore A23187 for a final concentration of 20 μM were added and mixed, and further incubated for 30 min. After 1000×g centrifugation to pellet blood cells, 20 μl plasma was carefully removed.
20 μl plasma were added to 80 μl methanol to precipitate protein and mixed. This was further incubated 10 min. at room temperature and centrifuged at 1000×g to pellet protein.
Following manufacturer's instructions, the commercially available EIA kit was used to subsequently measure the LTB4 production in the samples. The LTB4 levels produced in the vehicle control sample were then compared to those in which the test compound had been added. From this a percent inhibition of LTB4 production by each concentration of test compound was calculated and the IC50 for inhibition of LTB4 production for each test compound was determined.

[5] = system: dopaminergic neuronal cell line; assay: High glutamate-induced oxidative stress assay (HGOS); assay type: cell-based; conditions: Mus musculus; 30 mM glutamate, 16 hrs; read-out: EC50, protection against HGOS cell injury and cell death
Source text: Protection against redox stress can be further evaluated in cell culture using high glutamate induced oxidative stress (HGOS) in mouse dopaminergic cell lines. The cytotoxic effect of glutamate is not due to excitotoxicity, as this cell line is devoid of inotropic glutamate receptors. Rather, the glutamate-induced toxicity of dopaminergic cells is associated with an inhibition of cystine transport which subsequently leads to depletion of intracellular glutathione (GSH) levels (Murphy T. H., et al. Neuron 2, 1547-1558, 1989), activation of neuronal 12-lipoxygenase (Li, Y. et al., Neuron 19, 453-463, 1997), increased ROS production (Tan S. et al., J. Cell Biol. 141, 1423-1432, 1998) and elevated intracellular Ca^2+ (Li, Y. et al., see supra). Some molecules were measured for their ability to protect cells against glutamate-induced stress and the assay is detailed in Examples.
This procedure was used to induce high glutamate-induced oxidative stress (HGOS) in a dopaminergic neuronal cell line. Using this assay the potency and efficacy of test articles against HGOS neuronal cell injury and cell death was established in a high throughput manner.
The cells were seeded into 96-well plates at a density of 2000 per well and left to grow for 72 hours in a 33° C. incubator with 5% CO2 in air atmosphere. The passage number of the cells for each assay experiment were no later than p11 in order to minimize experimental variation.
All compounds were dissolved in DMEM-No Glu containing 1 mM glucose, 30 mM glutamate and 1×Pen/Strep. DMEM-No Glu with 1 mM glucose and 1×P/S was used as the negative control, DMEM-No Glucose with 1 mM glucose, […] was used as a positive control and 100 μM Glutathione was added to the positive control as a standard. All of the procedures for this involving the making and dilution of compounds were performed using aseptic conditions and with minimal light.
The plates were removed from the incubator and examined under the microscope for morphological appearance and density. Using an aseptic technique and an 8-channel aspirator the media was carefully removed from the cells and replaced with 200 μl of 1×HBSS. This was done as quickly as possible to prevent the cells drying out. The plates were then placed in the humidified 37° C. incubators of the Biomek 2000 Side Loader. Four plates were washed at a time so as to minimize the time that the cells were sitting in 1×HBSS prior to addition of the compound test solution.
The Beckman Biomek workstations were used to load the compounds and controls from the mother plates onto the cell plates that were prewashed with HBSS under sterile conditions. The plates were incubated in the upper HTS incubator at 37° C. in 5% CO2 for exactly 16 hrs. The following day, using the Beckman Biomek workstations, the plates were removed from the incubator. Using Cell Tracker Addition, the compounds were removed from the plates, washed once with […] of pre-warmed 1×HBSS and then 100 μL of 5 μM Cell Tracker Green was added to each well. The plates were incubated at 37° C. for 30 min to allow the dye to enter the cell and be cleaved by the esterases. After washing the cells twice with prewarmed 1×HBSS, the plates were read with the 485 excitation; 538 emission filter pair on a Fluoroskan.

Compound	EC50 [1] [µM]	IC50 [2] [µM]	IC50 [3] [µM]	EC50 [4] [µM]	EC50 [5] [nM]
Cc1c(O)c2c(c3c1CCC(C)(C)O3)C1CCC2CC1 [2,2,5-Trimethyl-3,4,7,8,9,10-hexahydro-7,10-ethano-2H-benzo[h]chromen-6-ol]	≤ 5	≤ 10	–	–	–
CC1(c2nccs2)CCc2cc(O)c3c(c2O1)C1CCC3C1 (stereo not drawn) [2-Methyl-2-thiazol-2-yl-3,4,7,8,9,10-hexahydro-7,10-methano-2H-benzo[h]chromen-6-ol]	≤ 5	≤ 10	–	–	–
CC1(C)CCc2cc(O)c3c(c2O1)C1CCC3C1 (stereo not drawn) [2,2-Dimethyl-3,4,7,8,9,10-hexahydro-7,10-methano-2H-benzo[h]chromen-6-ol]	≤ 5	≤ 10	≤ 5	≤ 10	–
CC1(c2cccs2)CCc2cc(O)c3c(c2O1)C1CCC3C1 (stereo not drawn) [2-methyl-2-thiophen-2-yl-3,4,7,8,9,10-hexahydro-7,10-methano-2H-benzo[h]chromen-6-ol]	≤ 5	≤ 10	–	≤ 10	≤ 1000
CC1(CCCSc2ccncc2)CCc2cc(O)c3c(c2O1)C1CCC3C1 (stereo not drawn) [2-Methyl-2-[3-(pyridin-4-ylsulfanyl)-propyl]-3,4,7,8,9,10-hexahydro-7,10-methano-2H-benzo[h]chromen-6-ol]	≤ 5	≤ 10	≤ 5	–	–
